≈ marks a conversion by molar mass, not a printed value. Read-outs that look alike come from different tables or passages of the source.
How the values were obtained:
[1] = tested on: S. aureus ATCC 25923; assay: Antibacterial activity, pre-exposure (planktonic cells and biofilm formation); format: cell-based, Staphylococcus aureus; settings: for MIC / inhibition at 5 µM / inhibition at 10 µM / inhibition at 15 µM / inhibition at 25 µM: Staphylococcus aureus, ATCC25923; for inhibition at 5 µM / inhibition at 10 µM / inhibition at 15 µM / inhibition at 25 µM / Average inhibition %, biofilms viability / Average inhibition %, planktonic cells viability: ± SD
Summary of the method: (§1)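 For planktonic resazurin, 20 μM final was used: 3–10 min at RT for S. aureus and A. baumannii, 20 min at 37 °C for P. aeruginosa. Cultures had been co-incubated with compound for 18 h at 37 °C, 220 rpm. Biofilms were then assessed by resazurin and crystal violet.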

[2] = tested on: S. aureus ATCC 25923; assay: Antibacterial activity, post-exposure on preformed 18-h-old biofilms; format: cell-based, Staphylococcus aureus; settings: ± SD; for inhibition at 25 µM / inhibition at 50 µM / inhibition at 100 µM / inhibition at 200 µM: Staphylococcus aureus; for inhibition at 25 µM: ATCC25923, 25 µM; for inhibition at 50 µM: ATCC25923, 50 µM; for inhibition at 100 µM: ATCC25923, 100 µM; for inhibition at 200 µM: ATCC25923, 200 µM
Summary of the method: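 Compounds were applied to preformed 18-h biofilms after medium change and left 24 h. Read-outs: planktonic OD plus resazurin fluorescence (20 μM), biofilm metabolic activity by resazurin 30 min at 37 °C, then biomass by crystal violet absorbance at 595 nm after ethanol fixation.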

[3] = tested on: A. baumannii NCTC 13423; assay: Antibacterial activity, pre-exposure; format: cell-based, Acinetobacter baumannii; settings: for Average inhibition %, biofilms viability / Average inhibition %, planktonic cells viability / inhibition at 10 µM / inhibition at 15 µM / inhibition at 25 µM / inhibition at 50 µM: A. baumannii NCTC 13423, pre-exposure, ± SD; for inhibition at 10 µM / inhibition at 15 µM / inhibition at 25 µM / inhibition at 50 µM / MIC: Acinetobacter baumannii, NCTC13423
Summary of the method: as §1

[4] = tested on: P. aeruginosa ATCC 9027; assay: Antibacterial activity, pre-exposure; format: cell-based, Pseudomonas aeruginosa; settings: for Average inhibition %, biofilms viability / Average inhibition %, planktonic cells viability / inhibition at 50 µM / inhibition at 100 µM / inhibition at 150 µM / inhibition at 200 µM: P. aeruginosa ATCC 9027, pre-exposure, ± SD; for inhibition at 50 µM / inhibition at 100 µM / inhibition at 150 µM / inhibition at 200 µM: Pseudomonas aeruginosa, ATCC9027
Summary of the method: as §1

[5] = read-out: Average inhibition %, biofilms biomass
[6] = read-out: Average inhibition %, planktonic cells turbidity
[7] = 50 µM, read-out: Average inhibition %, biofilms biomass
[8] = 50 µM, read-out: Average inhibition %, planktonic cells turbidity

How did the MIC ([1]; lowest concentration with no visible growth (>90% inhibition of turbidity and viability of planktonic cells), 18 h, read-out: MIC S. aureus ATCC 25923) turn out when `CCCCCCCCCCc1ccc(C(O)CC(N)(CO)CO)cc1` (stereo not shown) [Compound 55, 3-Amino-3-(hydroxymethyl)-1-(4-decylphenyl)butane-1,4-diol] was run?
Its MIC is 5 to 15 µM (≈ 1.76 to 5.27 µg/mL).

And the inhibition at 5 µM ([1]; pre-exposure, 5 µM, read-out: Average inhibition %, biofilms biomass)?
Its inhibition at 5 µM is 48.4 ± 41.1%.

What about the inhibition at 5 µM ([1]; pre-exposure, 5 µM, read-out: Average inhibition %, planktonic cells turbidity) of the same compound?
The inhibition at 5 µM was 38.2 ± 53.8%.

And the inhibition at 10 µM ([1]; pre-exposure, 10 µM, read-out: Average inhibition %, biofilms biomass)?
Its inhibition at 10 µM is 69.6 ± 23.5%.

What about the inhibition at 10 µM ([1]; pre-exposure, 10 µM, read-out: Average inhibition %, planktonic cells turbidity) of the same compound?
The inhibition at 10 µM was 43.5 ± 48.8%.

And the inhibition at 15 µM ([1]; pre-exposure, 15 µM, read-out: Average inhibition %, biofilms biomass)?
The inhibition at 15 µM was 93.4 ± 1.1%.

What about the inhibition at 15 µM ([1]; pre-exposure, 15 µM, read-out: Average inhibition %, planktonic cells turbidity) of the same compound?
The inhibition at 15 µM was 99 ± 0.6%.

What about the inhibition at 25 µM ([1]; pre-exposure, 25 µM, read-out: Average inhibition %, biofilms biomass) of the same compound?
Its inhibition at 25 µM is 94.2 ± 1.1%.

What about the inhibition at 25 µM ([1]; pre-exposure, 25 µM, read-out: Average inhibition %, planktonic cells turbidity) of the same compound?
Its inhibition at 25 µM is 98.8 ± 0.6%.

What about the MIC ([1]; pre-exposure, lowest value among replicates, read-out: MIC S. aureus ATCC 25923, for some replicates) of the same compound?
Its MIC is 5 µM (≈ 1.76 µg/mL).

And the MIC ([1]; read-out: MIC (S. aureus))?
The MIC was 5 to 15 µM (≈ 1.76 to 5.27 µg/mL).

What about the “Average inhibition %, biofilms viability” value ([1]; pre-exposure, 5 µM) of the same compound?
Its value is 50.6 ± 42%.

And the “Average inhibition %, planktonic cells viability” value ([1]; pre-exposure, 5 µM)?
The value was 33.2 ± 57.6%.

What about the “Average inhibition %, biofilms viability” value ([1]; pre-exposure, 10 µM) of the same compound?
Its value is 66.7 ± 28.3%.

And the “Average inhibition %, planktonic cells viability” value ([1]; pre-exposure, 10 µM)?
Its value is 43.1 ± 49.4%.

What about the “Average inhibition %, biofilms viability” value ([1]; pre-exposure, 15 µM) of the same compound?
Its value is 99.2 ± 0.2%.

What about the “Average inhibition %, planktonic cells viability” value ([1]; pre-exposure, 15 µM) of the same compound?
The value was 99.8 ± 0.1%.

And the “Average inhibition %, biofilms viability” value ([1]; pre-exposure, 25 µM)?
Its value is 99.6 ± 0.2%.

What about the “Average inhibition %, planktonic cells viability” value ([1]; pre-exposure, 25 µM) of the same compound?
The value was 99.8 ± 0.2%.

What about the “Average inhibition %, biofilms viability” value ([2]; 25 µM) of the same compound?
Its value is 17.9 ± 13.2%.

What about the “Average inhibition %, planktonic cells viability” value ([2]; 25 µM) of the same compound?
Its value is 0 ± 0%.

And the “Average inhibition %, biofilms viability” value ([2]; 50 µM)?
Its value is 36.8 ± 8.3%.

And the “Average inhibition %, planktonic cells viability” value ([2]; 50 µM)?
Its value is 0 ± 0%.

What about the “Average inhibition %, biofilms viability” value ([2]; 100 µM) of the same compound?
The value was 44.4 ± 9.7%.

What about the “Average inhibition %, planktonic cells viability” value ([2]; 100 µM) of the same compound?
Its value is 70 ± 12.5%.

And the “Average inhibition %, biofilms viability” value ([2]; 200 µM)?
Its value is 94 ± 8.6%.

What about the “Average inhibition %, planktonic cells viability” value ([2]; 200 µM) of the same compound?
Its value is 100.4 ± 0%.

What about the inhibition at 25 µM [2, 5] of the same compound?
Its inhibition at 25 µM is 51.6 ± 18.4%.

What about the inhibition at 25 µM [2, 6] of the same compound?
Its inhibition at 25 µM is 15.7 ± 13.7%.

What about the inhibition at 50 µM [2, 5] of the same compound?
Its inhibition at 50 µM is 63.1 ± 9%.

And the inhibition at 50 µM [2, 6]?
Its inhibition at 50 µM is 9.8 ± 13.9%.

What about the inhibition at 100 µM [2, 5] of the same compound?
The inhibition at 100 µM was 61.4 ± 3.4%.

And the inhibition at 100 µM [2, 6]?
Its inhibition at 100 µM is 67.6 ± 10.3%.

And the inhibition at 200 µM [2, 5]?
Its inhibition at 200 µM is 80.8 ± 4.2%.

And the inhibition at 200 µM [2, 6]?
Its inhibition at 200 µM is 84.2 ± 3.1%.

What about the “Average inhibition %, biofilms viability” value ([3]; 10 µM) of the same compound?
Its value is 1.8 ± 3.2%.

What about the “Average inhibition %, planktonic cells viability” value ([3]; 10 µM) of the same compound?
Its value is 3.8 ± 3.3%.

And the “Average inhibition %, biofilms viability” value ([3]; 15 µM)?
The value was 92.7 ± 9.4%.

And the “Average inhibition %, planktonic cells viability” value ([3]; 15 µM)?
Its value is 98.1 ± 2.3%.

And the “Average inhibition %, biofilms viability” value ([3]; 25 µM)?
The value was 100.6 ± 0.9%.

What about the “Average inhibition %, planktonic cells viability” value ([3]; 25 µM) of the same compound?
Its value is 99.7 ± 0%.

And the “Average inhibition %, biofilms viability” value ([3]; 50 µM)?
The value was 101 ± 1%.

And the “Average inhibition %, planktonic cells viability” value ([3]; 50 µM)?
The value was 99.5 ± 0%.

What about the inhibition at 10 µM ([3]; 10 µM, read-out: Average inhibition %, biofilms biomass) of the same compound?
The inhibition at 10 µM was 0.2 ± 0.4%.

What about the inhibition at 10 µM ([3]; 10 µM, read-out: Average inhibition %, planktonic cells turbidity) of the same compound?
The inhibition at 10 µM was 0.8 ± 1.4%.

And the inhibition at 15 µM ([3]; 15 µM, read-out: Average inhibition %, biofilms biomass)?
The inhibition at 15 µM was 74.2 ± 18.9%.

And the inhibition at 15 µM ([3]; 15 µM, read-out: Average inhibition %, planktonic cells turbidity)?
The inhibition at 15 µM was 97.2 ± 2.5%.

What about the inhibition at 25 µM ([3]; 25 µM, read-out: Average inhibition %, biofilms biomass) of the same compound?
The inhibition at 25 µM was 88.5 ± 6.6%.

And the inhibition at 25 µM ([3]; 25 µM, read-out: Average inhibition %, planktonic cells turbidity)?
Its inhibition at 25 µM is 99.5%.

And the inhibition at 50 µM [3, 7]?
The inhibition at 50 µM was 87.4 ± 4.1%.

And the inhibition at 50 µM [3, 8]?
The inhibition at 50 µM was 99.1%.

And the MIC ([3]; pre-exposure, Inactive = no activity up to 50 μM, > = some inhibition but no MIC reached, read-out: MIC A. baumannii NCTC 13423)?
The MIC was 15 µM (≈ 5.27 µg/mL).

What about the MIC ([3]; supplementary molecular formula strings sheet, read-out: MIC (A. baumannii)) of the same compound?
Its MIC is 15 µM (≈ 5.27 µg/mL).

What about the “Average inhibition %, biofilms viability” value ([4]; 50 µM) of the same compound?
Its value is 13.6 ± 11.8%.

And the “Average inhibition %, planktonic cells viability” value ([4]; 50 µM)?
The value was 31.2 ± 8.9%.

What about the “Average inhibition %, biofilms viability” value ([4]; 100 µM) of the same compound?
The value was 9.4 ± 9.2%.

What about the “Average inhibition %, planktonic cells viability” value ([4]; 100 µM) of the same compound?
Its value is 30.3 ± 25.5%.

And the “Average inhibition %, biofilms viability” value ([4]; 150 µM)?
Its value is 3.3 ± 4.6%.

And the “Average inhibition %, planktonic cells viability” value ([4]; 150 µM)?
The value was 40.3 ± 27.1%.

What about the “Average inhibition %, biofilms viability” value ([4]; 200 µM) of the same compound?
Its value is 5 ± 5.6%.

What about the “Average inhibition %, planktonic cells viability” value ([4]; 200 µM) of the same compound?
The value was 27.1 ± 15.6%.

What about the inhibition at 50 µM [4, 7] of the same compound?
Its inhibition at 50 µM is 6.4 ± 8.2%.

And the inhibition at 50 µM [4, 8]?
Its inhibition at 50 µM is 45.1 ± 5.7%.

And the inhibition at 100 µM ([4]; 100 µM, read-out: Average inhibition %, biofilms biomass)?
The inhibition at 100 µM was 10.8 ± 8.8%.

And the inhibition at 100 µM ([4]; 100 µM, read-out: Average inhibition %, planktonic cells turbidity)?
The inhibition at 100 µM was 49.4 ± 8.3%.

What about the inhibition at 150 µM ([4]; 150 µM, read-out: Average inhibition %, biofilms biomass) of the same compound?
Its inhibition at 150 µM is 12 ± 10.4%.

What about the inhibition at 150 µM ([4]; 150 µM, read-out: Average inhibition %, planktonic cells turbidity) of the same compound?
The inhibition at 150 µM was 54.3 ± 13.8%.

And the inhibition at 200 µM ([4]; 200 µM, read-out: Average inhibition %, biofilms biomass)?
The inhibition at 200 µM was 3.1 ± 2.7%.

And the inhibition at 200 µM ([4]; 200 µM, read-out: Average inhibition %, planktonic cells turbidity)?
Its inhibition at 200 µM is 59.4 ± 7.3%.

And the “MIC P. aeruginosa ATCC 9027” value ([4]; pre-exposure, Inactive = no activity up to 200 μM, > = some inhibition but no MIC reached)?
Its value is “Inactive”.
